Tests used:
[1] = Oligonucleotide probe stability in buffer and cell media; type: physicochemical; details: over a 35-hour period
27mer DNA template [2] = experiment: Melting temperatures of DNA template with probes and ligation products; type: physicochemical; details: hybridization target against 27mer template; 250 mM NaCl in buffer; 1 μM each oligonucleotide
Protocol: Melting temperature of probes and ligation products in hybridization buffer (50 mM MOPS pH 7.5, 250 mM NaCl) were measured using a Beckman-Coulter DU 640 spectrophotometer equipped with a high performance temperature controller and micro auto six-cell holder. Samples at 1 μM concentration of each oligonucleotide were heated to 90° C. and slowly cooled to RT over 1-1.5 h before the measurements. Melting temperature values were obtained by cooling samples from 90° C. to 20° C. at the rate of 1° C./min and measuring at 1° C. increments with each read averaged over 1 s.

27mer DNA template [3] = experiment: Template-driven ligation of tetrazine and cyclopropene oligonucleotide probes (fluorescence); type: biochemical; details: for change in fluorescence in the absence of template: 1 μM probes, no template
Protocol: Tetrazine and cyclopropene-modified oligonucleotide probes were ligated in the presence of a DNA or RNA template at a 1:1:1 ratio. Reactions were done in varying solution and temperature conditions, as indicated. Main hybridization buffer was 50 mM MOPS at pH 7.5, 250 mM NaCl. Ligation reactions with a mismatched DNA template were performed in 5 mM MgCl2 in standard 1× Tris-borate buffer (purchased as 10× UltraPure TBE from Invitrogen: 1.0 M Tris pH 8.4, 0.9 M Boric acid, 10 mM EDTA).
Ligation reactions were done in standard 96 fluorescence well plates using SpectraMax GeminiXS (Molecular Devices). Temperature was set by the instrument. Where indicated by standard deviations, experiments were performed multiple times. In order to avoid any secondary structure artifacts, DNA or RNA template with added tetrazine probe was first heated to 90° C. and crash-cooled on ice for 2 min right before the experiment. Each well was filled with a total of 100 μL reaction solution, and reactions were timed from the addition of the cyclopropene probe as the last step before starting the measurements. Wells were scanned every 20-60 s depending on the speed of the reactions by using 485 nm excitation and 538 nm emission with the cutoff set at 495 nm. Control reactions without template were done in parallel each time. Buffer-only well intensities were subtracted from the measured raw data before analysis. Data was analyzed using GraphPad Prism 6.0 by applying a nonlinear fit of a one-phase association to each curve where fluorescein signal during reaction was measured.

[4] = system: LS174T human colon cancer cells; experiment: Simultaneous imaging of two metabolically incorporated unnatural sugars and cross reactivity; type: cell-based
Protocol: (§1) The SKBR3 and LS174T cells were incubated for two days in the presence of 100 μM of Ac4ManNCyc and/or 50 μM Ac4GlcNAz on a Lab-Tek chamber slide maintained in cDMEM medium. Treatment of cells with tunicamycin was done by preparing a 0.2 mg/mL stock in DMSO, which was diluted to a final working concentration of 1.2 μM tunicamycin in cDMEM (0.5% DMSO). Cells were washed 3× with phosphate-buffered saline (PBS) and incubated for 1 hour at 37° C. in 10 μM tetrazine-BODIPY TMR-X, 10 μM tetrazine-Alexa flour 488 and/or 15 μM dibenzocyclooctyne (DIBO)-Alexa Fluor 647 in cDMEM. The media was aspirated, and cells were washed twice with PBS before imaging. All photos were collected with an Olympus FV1000 confocal microscope using ImageJ 1.45j software package.
Finally, we tested whether or not we could simultaneously image two different metabolically incorporated unnatural sugar derivatives, Ac4ManNCyc and tetraacetylated N-azidoacetylgalactosamine (Ac4GalNAz). […] Recent experimental work has shown that alkenes and azides can be mutually orthogonal to each other, even when using highly strained trans-cyclooctenes. Additionally, the Houk group has calculated that methyl-cyclopropene handles, such as those we have previously developed, should be mutually orthogonal to azide cyclooctyne reactions. We incubated LS174T human colon cancer cells with 100 μM Ac4ManNCyc and Ac4GalNAz for 2 days. After incubation, we sequentially stained the cells with 10 μM tetrazine-Alexa Fluor 488 and 15 μM dibenzocyclooctyne (DIBO) 647. […] Similar results were obtained with the SKBR3 cell line. […] The ability to simultaneously label two different metabolically incorporated molecules using live-cell compatible inverse-Diels-Alder and Huisgen reactions expands the capabilities of bioorthogonal metabolic imaging.

[5] = Aqueous stability of methyl-cyclopropenes by 1H NMR; type: physicochemical; details: for aqueous stability: aqueous deuterated solutions (D2O/DMSO-d6=4:1)
Source text: (§2) After synthesizing the new cyclopropene mini-tags, we next sought to compare their reactivity with tetrazines through inverse Diels-Alder cycloaddition. Additionally, we also assayed their aqueous stability, since methyl-cyclopropene tags are envisioned to find application in bioorthogonal coupling reactions. In order to monitor kinetics, we reacted eight representative methyl-cyclopropenes with 1-methyl-4-aryl tetrazine under pseudo-first order conditions, and tracked the reaction of tetrazine by monitoring the disappearance of the characteristic absorption at 530 nm, similar to previous reports. For stability experiments, we incubated methyl-cyclopropenes in aqueous deuterated solutions (D2O/DMSO-d6=4:1) as indicated.

[6] = Reactivity of methyl-cyclopropene mini-tags with tetrazine, pseudo-first order; type: physicochemical; details: for rate of reaction with tetrazines (in words): aqueous solvent
Source text: as §2

[7] = Storage stability of cyclopropene derivatives; type: physicochemical; details: for storage stability at −20° C.: stored at −20° C.
SKBR3 cells = experiment: Live-cell microscopy of metabolically incorporated cyclopropene sugar; type: cell-based, human; details: glycosylation inhibitors or 20 mM ManNAc as competitive substrate
Protocol: SKBR3 and LS 174T cells were grown in cDMEM media supplemented with 10% fetal bovine serum, 1% L-glutamine, 1% penicillin/streptomycin. Cells were incubated in 5.0% carbon dioxide, 95% humidity at 37° C. Generally, cells were grown in T-75 tissue culture flasks, seeded at densities between 500,000 and 750,000 cells per flask (cells were quantified with the Life Technologies Countess automated cell counter). The cells were trypsinized with TrypLE Express and resuspended in cDMEM. Cells were allowed to incubate for two days before supplementing with Ac4ManNCyc (N-cyclopropeneacetylmannosamine) or Ac4GlcNAz (N-azidoacetylglucosamine). The cells were then analyzed via confocal microscopy and flow cytometry as described below.
as §1
In order to determine if Ac4ManNCyc was incorporated effectively by cells, we incubated adherent human breast cancer (SKBR3) and colon cancer (LS174T) cell lines with 100 μM Ac4ManNCyc for 48 hours in cell media and serum. After incubation, cells were thoroughly washed and then reacted for 1 hour with 10 μM of fluorogenic Alexa Fluor 488 tetrazine. After a second wash, cells were imaged by confocal microscopy (Olympus FV1000). […] In order to ensure that the staining was due to glycan uptake of the probe, we also performed controls by exposing cells to 100 μM Ac4ManNCyc and inhibiting uptake by using glycosylation inhibitors (ie. tunicamycin and αBnGalNAc) or 20 mM of ManNAc as a competitive substrate.^[14] […] These experiments provide evidence that the staining patterns are reporting on glycosylation and uptake of the unnatural cyclopropene mannosamine. We also performed additional studies using flow cytometry to quantitate the relative uptake of sugars that corroborated the imaging data.

[8] = Reaction rate determination of cyclopropenes with tetrazine 3; type: physicochemical
Protocol: A tetrazine 3 stock solution was prepared in DMSO and used to prepare tetrazine solutions at 0.6 mM final concentration in 12% v/v DMSO in ddH2O. Reactions were initiated with excess cyclopropene at final concentrations of 6.0, 8.0, and 10.0 mM. The disappearance of the tetrazine absorption peak at 520 nm was tracked over the reaction timeframe by measuring the absorption spectra using a NanoDrop 2000c spectrophotometer (Thermo Scientific). Samples were placed in a quartz cuvette with 10-mm pathlength and stirred at the maximum speed setting of the instrument. The temperature was uncontrolled by the instrument for room temperature (20° C.) measurements, and set and equilibrated at 37° C. for the higher temperature experiments.
Absorption spectra were measured manually over time. Absorption peak signal was taken as the average of measurements at 519-521 nm. Baseline signal was determined as the sloping line connecting the measured background levels preceding and following the tetrazine peak (410-430 nm and 590-610 nm, respectively). Final peak intensity value was taken as the signal above the baseline. Reaction rates were obtained by fitting the exponential decays of tetrazine peak absorption intensity as a pseudo first order reaction. Nonlinear data fits were performed with GraphPad Prism. Tetrazine reactions with cyclopropene carbamate 5 were carried out at 20 and 37° C. (data points and corresponding fitted curves at 20° C. in FIG. 51, 37° C. in FIG. 2c). Tetrazine reactions with cyclopropene carboxamide 2 were done at 37° C. ([…]. A representative comparison fit is shown for cyclopropenes 5 and 2 at 8.0 mM concentration reacting at 37° C. with 0.6 mM tetrazine.

For “13merFl5′tet: 5′-tetrazine-/5AmMC6//iFluorT/CG ATG GCG TCA A-3′ (SEQ ID NO:4) (DNA CGATGGCGTCAA; 5' tetrazine, amino C6 linker, internal fluorescein-dT, chemistry not fully specified)”, the autohydrolytic turn-on [1] was “minimal”, the “Melting T” value (27mer DNA template [2]) was 57.4 °C and the “change in fluorescence in the absence of template” value (27mer DNA template [3]; listed as 13merF15′tet) was “no appreciable change in fluorescence over time”. The “change in fluorescence in the absence of template” value (27mer DNA template [3]; listed as Fluorogenic tetrazine probe) was “does not turn on” and the “increase in the peak emission intensity” value (27mer DNA template [3]; reaction with the cyclopropene probe in the presence of a DNA template) was 9.3 fold.
In the case of `CC(=O)OC[C@H]1OC(OC(C)=O)[C@H](NC(=O)CN=[N+]=[N-])[C@@H](OC(C)=O)[C@H]1OC(C)=O` (stereo partly drawn) [Ac4GalNAz, tetraacetylated N-azidoacetylgalactosamine, reference compound], the “cell surface staining after co-incubation of both sugars” value ([4]; 100 μM, 2 days, stained with 10 μM tetrazine-Alexa Fluor 488 and 15 μM DIBO 647) is reported as “cell surface staining in both the fluorescent channels” and the “cross reactivity: surface staining with tetrazine-Alexa Fluor 488” value ([4]; cells incubated with only this sugar) is reported as “minimal surface staining”.
With `CC1=CC1/C=C/C(=O)O` (stereo not drawn) [Compound 13] the aqueous stability [5] was “unstable to incubation in aqueous solvent at 37 °C”.
For `CC1=CC1/C=C/C(=O)NCCO` (stereo not drawn) [Compound 14], the “rate of reaction with tetrazines (in words)” value [6] was “significantly lowered the rate of reaction with tetrazines” and the aqueous stability [5] was “greatly improved stability”.
For `CC1=CC1/C=C/CO` (stereo not drawn) [Compound 16], the “rate of reaction with tetrazines (in words)” value [6] was “greatly increased the reaction rate”, the “time to complete decomposition” value ([5]; D2O/DMSO-d6=4:1 at room temperature) was 10.5 h and the aqueous stability [5] was “unstable in aqueous solution”. For the same compound, the “storage stability at −20° C.” value [7] was “not stable to long-term storage”.
In the case of `CC(=O)N[C@H]1[C@@H](O)[C@H](O)[C@@H](CO)O[C@@H]1O` [ManNAc], the “effect on staining of cells exposed to 100 μM Ac4ManNCyc” value (“effect on staining of cells exposed” below) (SKBR3 cells) is reported as “lowered fluorescent signal”.
For `CC1=C([Si](C)(C)C)C1C=O` (stereo not drawn) [cyclopropen aldehyde 11], the “storage stability at −20° C.” value [7] was “slowly degrading over 48 hours”.
In the case of `CC1=CC1C(N)=O` (stereo not drawn) [cyclopropene 2, 2-methylcycloprop-2-enecarboxamide], the “second order rate constant” value ([8]; 37° C., water/DMSO (12% DMSO by volume)) is reported as 0.137 ± 0.004 M⁻¹ s⁻¹ and the long-term storage stability [7] is reported as “could be stored for extended periods of time without degradation”.
For `CC1=C([Si](C)(C)C)C1CN` (stereo not drawn) [cyclopropene amine 3], the long-term storage stability [7] was “not amenable long-term storage”.
For `CC1=C([Si](C)(C)C)C1CN=[N+]=[N-]` (stereo not drawn) [cyclopropene azide 2], the long-term storage stability [7] was “not amenable long-term storage”.
For `CC(=O)N[C@H]1[C@@H](OCc2ccccc2)O[C@H](CO)[C@H](O)[C@@H]1O` [αBnGalNAc], the “effect on staining of cells exposed” value (SKBR3 cells) was “severely diminished staining”.
In the case of cyclopropene carbamate, the “rates of cycloaddition with unsubstituted tetrazine relative to methyl-tetrazine” value ([6]; previous studies with faster reacting unsubstituted tetrazine) is reported as 36 fold faster and the “rate of cycloaddition relative to cyclopropene amide 1” value ([8]; reacting with tetrazine 3 in aqueous solution) is reported as “approximately one-hundred times faster”.
In the case of tunicamycin, the “effect on staining of cells exposed” value (SKBR3 cells) is reported as “severely diminished staining”.
